# Results as given in patent US12624031B2, “Inhibitors of ubiquitin specific peptidase 22 (USP22) and uses thereof for treating diseases and disorders” (Northwestern University, priority 2022, dated 2026).
# Columns and labels:
# [1] = test system: LLC1 tumors in RAG−/− mice; assay: LLC1 tumor growth in RAG−/− mice; assay type: in vivo; details: treated for 3 days at day 15 of tumor growth
# Experimental: FIG. 8: Usp22i-S02 inhibits tumor growth in vitro and in vivo. A, In vitro counts of LLC1 after treatment with Usp22i-S02 under various concentrations for 24 hours (n=2). B, In vitro viability of LLC1 after treatment with Usp22i-S02 under various concentrations for 24 hours (n=2). C, In vitro relative growth of LLC1 cells treated with 10 ug/ml of Usp22i-S02 relative to DMSO treated control for 7 days via OD600 (n=4). D, Growth curve of 1 million subcutaneously injected LLC1 cells into RAG−/− mice treated for 3 days Usp22i-S02 relative to DMSO control injections at day 15 of tumor growth (n=4). C-D, Two-way ANOVA with Sidaks's multiple comparisons between rows relative to control was performed to determine statistical significance. All data are presented as mean±stdev. NS, not significant. *P<0.05, **P<0.01, ***P<0.001, ****P<0.0001.
# As Usp22 is also an important oncogene, we were interested in the potential dual-therapeutic function of Usp22i-S02.
# [2] = test system: LLC1 tumors in WT mice; assay: LLC1 tumor model in WT mice; assay type: in vivo
# Experimental: FIG. 5: Usp22 inhibitor administration enhances antitumor immunity. A, Structure of compound CS30 (Usp22i-S02). B, FOXP3 MFI in WT and 22KO of Treg cells after treatment with 20 μg/kg of Usp22i-S02 in vivo (n=3). C, Representative flow cytometry plot of FOXP3+CD25+MFI of CD4+ peripheral cells of mice treated with 20 μg/kg of Usp22i-S 02 relative to control (n=5). D, Graphical representation of Foxp3 MFI upon Usp22i-S02 administration (n=5). E, Tumor growth curve of LLC1 cells subcutaneously injected in the flank of WT mice with or without the addition of 20 mg/kg/time of the Usp22 inhibitor starting at day 15, in 100 μL of oil (n=4). F-G, Representative flow cytometry plot and graphical representation of % infiltration of CD4+ and CD8+ T cells within the tumor (n=4). H, Representative histogram plot and graphical representation of intratumoral Treg (itTreg) Foxp3 MFI (n=4). I, MFI of itTreg suppressive markers (n=3-4). J, Percent Foxp3+IFNg+itTreg cells in control and Usp22-S02 treated mice (n=3-4). B, D-E, G, H-I Two-way ANOVA with multiple comparisons between rows was performed to determine statistical significance. J, Unpaired two tailed T test was performed to determine significance. All data are presented as mean±stdev. NS, not significant. *P<0.05, **P<0.01, ***P<0.001, ****P<0.0001.
# FIG. 7: Usp22i-S02 has little effect on naïve mice, yet enhances anti-tumor immunity in LLC1-challenged mice. A, Body weight of Usp22i-S02 treated mice verses DMSO treated controls over the course of treatment (n=4). A-F. Injections were twice a day for 3 consecutive days at 10 μg/kg (n=4). B, Percent of cell populations in naïve mice treated with Usp22i-S02 relative to DMSO control (n=3-4). C, Percent of KI-67+ cells in various compartments in naïve mice treated with Usp22i-S02 relative to DMSO control (n=3-4). D, Percent CD44^hiCD62L^lo in T cell populations gated on CD45+ cells in naïve mice treated with Usp22i-S02 relative to DMSO control (n=3). E, Percent Annexin+PI+ T cells gates on CD45+ cells in naïve mice treated with Usp22i-S02 relative to DMSO control (n=4). F-H, Organ toxicity panel (VetScan VS2 Comprehensive Diagnostic Rotor lot 1061AA2) of naïve mice treated with Usp22i-S02 relative to DMSO control (n=2-3). I, Growth curve of subcutaneously injected LLC1 in WT mice treated with Usp22i-S02 at 10 μg/kg (n=5-10). I-Q, Injections were twice a day for 5 consecutive days at 10 μg/kg. J, Weights of resected tumors at day 16 from I (n=10). K-L, Representative flow plot and graphical representation of infiltrating T cells gated on CD45+ cells (n=5). M-P, Characterization of intratumoral CD8+ T cells frome mice treated with Usp22i-S02 (n=3-5). Q, Percent of intratumoral Treg cells from mice treated with Usp22i-S02 verses DMSO control, gated on CD4+Foxp3+ from mice (n=5). A-E, I and L, Two-way ANOVA with Sidaks's multiple comparisons between rows relative to control was performed to determine statistical significance. F-H, J, and M-Q, Two-tailed unpaired t-test was performed to determine statistical significance. All data are presented as mean±stdev. NS, not significant. *P<0.05, **P<0.01, ***P<0.001, ****P<0.0001.
# To determine the functionality of Usp22i-S02 as a potential therapeutic, we tested the inhibitor on established tumors. […] Further analysis of tumor infiltrating lymphocytes was done on mice treated immediately following tumor implantation (FIG. 7I).
# LLC1 cells were transplanted into 6-to-8-week-old C57BL/6 male mice. Subcutaneous injections were performed in the right flank of mice in a final volume of 100 μL using […] per injection. The USP22i-S02 was injected intraperitoneally (i.p) at a concentration of 20 mg/kg/time, in 100 μL of oil, twice a day for 5 days beginning on the day of the LLC1 cells injection. Control animals received 100 μL of oil alone. Subcutaneous tumor diameters were measured daily with calipers until any tumor in the mouse cohort reached 2.5 cm in its largest diameter.
smiles,measurement,setting,value
"N#Cc1c2c(c(Nc3ccccc3)n3c1nc1ccccc13)CCCC2 [USP22i-S02, 11-anilino-7,8,9,10-tetrahydrobenzimidazo[1,2-b]isoquinoline-6-carbonitrile]",tumor growth in Rag−/− mice with established tumors,[1],small but statistically significant decrease in tumor growth
same,tumor growth of established LLC1 tumors,"[2]; WT mice, 20 mg/kg/time starting at day 15",striking tumor rejection
same,itTreg GITR and PD-1 levels,[2]; established LLC1 tumors,lower levels of GITR and PD-1
same,itTreg IFN-γ levels,[2]; established LLC1 tumors,significantly higher levels of IFN-γ
same,Teff cell tumor infiltration,"[2]; established LLC1 tumors, WT mice",significant increase in Teff cell tumor infiltration
same,intratumoral Foxp3+ Treg percentage,"[2]; established LLC1 tumors, not splenic",significantly decreased
same,intratumoral CD8+ T cell phenotype,[2]; treated immediately following tumor implantation,less exhausted phenotype
same,intratumoral Foxp3+ Treg percentage,[2]; treated immediately following tumor implantation (FIG. 7Q),significantly decreased
same,tumor burden,"[2]; treated immediately following tumor implantation, twice a day for 5 days at 10 μg/kg",decreased tumor burden
